Assay results taken from publication PMC7913210 (Pharmaceutics, 2021).

What was measured:
[1] = Parent-metabolite PK model (non-linear mixed-effect modeling) after SC LHA administration; type: in vivo, Sprague-Dawley rats
Method: In addition, a combined transit model with first-order absorption was evaluated to better describe absorption phase. In the transit model, the optimal number of transit compartments (NTR) and the mean transit time (MTT) were estimated. The transit model introduced three parameters—Ktr, NTR, and MTT. Two of these three parameters were estimated. The relationship of these parameters is shown in the following equation: MTT= (NTR+1)/Ktr The inter-individual variability (IIV) was assessed using an exponential variability model as following equation: Pi=Ptv ×exp (ETA) where Pi represents the value of the individual PK parameter, Ptv is a typical value for P, and ETA indicates an interindividual random effect with the mean of zero and variance of ω^2. Residual random variability (ε) was calculated using a proportional error model for the three types of observations. Optimal model selection was guided by changes in diagnostic values including twice the negative log like (−2LL), Akaike information Criterion (AIC), Baysian Information Criteria (BIC), visual inspection of various diagnostic plots (goodness of fit plot), and precision of parameter estimates. The visual predictive check (VPC) and boot strap analysis was conducted for non-parametric evaluation of the model. Graphical diagnostics including basic goodness-of-fit plot and other accessory plots were used for single run-based diagnostics during model development. For the final model, the robustness and predictive performance were evaluated using multiple run-based diagnostics such as bootstrapping. A bootstrap procedure was conducted with a total of 1000 bootstrap-resampled datasets from the original dataset. Bootstrap results of median and 95% confidence intervals (CIs, […]) were compared with final parameter estimates. The 95% confidence intervals of parameters obtained from this step were compared with final parameter estimates.

[2] = cited from earlier work
[3] = SC LHA, rats, model estimate (fixed effect)

CLm2/F, Apparent Metabolite clearance ([1]; SC LHA, rats, second metabolite (GX), model estimate) [L/h] | Fm2, Fraction of the first metabolite converted to second metabolite ([1]; SC LHA, rats, MEGX to GX, model estimate) | CLm1/F, Apparent Metabolite (MEGX) clearance [1, 3] [L/h] | MEGX converted into GX ([1]; model prediction, hyaluronic acid pre-incorporated lidocaine injected subcutaneously) | Compound | potency as anti-arrhythmic agent relative to lidocaine [2] | Vmax, Maximum rate of reaction ([1]; SC LHA, rats, Michaelis-Menten elimination of lidocaine, model estimate) | MTT, Mean Transit Time [1, 3] [h] | Ntr, Number of transit compartments [1, 3]
1.09 | – | – | – | Cc1cccc(C)c1NC(=O)CN [GX, glycylxylidide] | ~10% | – | – | –
– | – | – | – | CCN(CC)CC(=O)Nc1c(C)cccc1C [Lidocaine, reference compound] | – | 423,962.94 nmol/h | 0.64 | 4.97
– | 0.47 | 14.94 | about 47% | CCNCC(=O)Nc1c(C)cccc1C [MEGX, monoethylglycylxylidide] | approximately 80% | – | – | –
